In ChEMBL document CHEMBL1201862, “PubChem BioAssay data set” (2004):
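Following 48 hours of exposure in 96-well plates, responses at five concentrations were used to interpolate endpoints linearly. Abbreviation: GI50, concentration required for 50% inhibition of growth.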 The source made the active and inactive calls. No stated cut-off is given here; in the data, active = GI50 up to about 1.1 µM and inactive = higher. Where a SMILES comes first, the peptide text is derived from it. The star is where a group is joined. Boc = CC(C)(C)OC(=O)*; OSu = O=C1CCC(=O)N1O*

Key:
Assay in all cases: growth of human tumour cells (NCI), 48 h
786-0 = tested on: 786-0
A549 = tested on: A549
EKVX = tested on: EKVX
HOP-62 = tested on: HOP-62
Hs-578T = tested on: Hs-578T
M14 = tested on: M14
MCF7 = tested on: MCF7
MDA-MB-435 = tested on: MDA-MB-435
MDA-N = tested on: MDA-N
NCI-H460 = tested on: NCI-H460
NCI-H522 = tested on: NCI-H522
OVCAR-3 = tested on: OVCAR-3
RPMI-8226 = tested on: RPMI-8226
RXF 393 = tested on: RXF 393
SK-MEL-28 = tested on: SK-MEL-28
SK-OV-3 = tested on: SK-OV-3
SNB-19 = tested on: SNB-19
SNB-75 = tested on: SNB-75
T47D = tested on: T47D
UO-31 = tested on: UO-31

`[N-]=[N+]=C1C(=O)c2ccccc2-c2ccccc21` was tested, and the GI50 (786-0) was 26.1 µM (inactive), the GI50 (A549) was 30.4 µM (inactive) and the GI50 (EKVX) was 30.5 µM (inactive). For the same molecule, the GI50 (HOP-62) was 41.2 µM (inactive), the GI50 (Hs-578T) was 33 µM (inactive) and the GI50 (M14) was 44.6 µM (inactive). For the same molecule, the GI50 (MCF7) was 25.9 µM (inactive), the GI50 (MDA-MB-435) was 40.7 µM (inactive) and the GI50 (MDA-N) was 43.7 µM (inactive). For the same molecule, the GI50 (NCI-H460) was 32.1 µM (inactive), the GI50 (NCI-H522) was 24.4 µM (inactive) and the GI50 (OVCAR-3) was 40.9 µM (inactive). For the same molecule, the GI50 (RPMI-8226) was 26.9 µM (inactive), the GI50 (RXF 393) was 15.6 µM (inactive) and the GI50 (SK-MEL-28) was 60.8 µM (inactive). The GI50 (SK-OV-3) was 39.5 µM (inactive), the GI50 (SNB-19) was 45.8 µM (inactive) and the GI50 (SNB-75) was 20 µM (inactive). For the same molecule, the GI50 (T47D) was 28.3 µM (inactive) and the GI50 (UO-31) was 27.2 µM (inactive).

`C=C(Cl)C(Cl)(CBr)CCC(Br)C(C)(C)Br` (stereo not given) was tested, and the GI50 (786-0) was 1.14 µM (inactive), the GI50 (A549) was 4.9 µM (inactive) and the GI50 (EKVX) was 8.45 µM (inactive). For the same molecule, the GI50 (HOP-62) was 1.06 µM (active), the GI50 (Hs-578T) was 2.96 µM (inactive) and the GI50 (M14) was 16.3 µM (inactive). For the same molecule, the GI50 (MCF7) was 1.5 µM (inactive), the GI50 (MDA-MB-435) was 9.44 µM (inactive) and the GI50 (MDA-N) was 8.93 µM (inactive). The GI50 (NCI-H460) was 1.72 µM (inactive), the GI50 (NCI-H522) was 5.86 µM (inactive) and the GI50 (OVCAR-3) was 2.93 µM (inactive). For the same molecule, the GI50 (RPMI-8226) was 0.426 µM (active), the GI50 (RXF 393) was 1.8 µM (inactive) and the GI50 (SK-MEL-28) was 2.95 µM (inactive). For the same molecule, the GI50 (SK-OV-3) was 17.2 µM (inactive), the GI50 (SNB-19) was 8.75 µM (inactive) and the GI50 (SNB-75) was 2.12 µM (inactive). The GI50 (T47D) was 2.25 µM (inactive) and the GI50 (UO-31) was 8.17 µM (inactive).

In the case of `Cc1cccc(NC(=S)N/N=C(/c2ccccc2)c2ccccn2)c1`, the GI50 (786-0) is reported as 0.948 µM (active), the GI50 (A549) is reported as 0.22 µM (active) and the GI50 (EKVX) is reported as 0.0885 µM (active). For the same molecule, the GI50 (HOP-62) was 1.29 µM (inactive), the GI50 (Hs-578T) was 9.02 µM (inactive) and the GI50 (M14) was < 0.01 µM (active). The GI50 (MCF7) was < 0.0172 µM (active), the GI50 (MDA-MB-435) was 0.574 µM (active) and the GI50 (MDA-N) was 0.46 µM (active). For the same molecule, the GI50 (NCI-H460) was 0.159 µM (active), the GI50 (NCI-H522) was 1.09 µM (active) and the GI50 (OVCAR-3) was < 0.0182 µM (active). For the same molecule, the GI50 (RPMI-8226) was < 0.0182 µM (active), the GI50 (RXF 393) was 0.667 µM (active) and the GI50 (SK-MEL-28) was 1.89 µM (inactive). The GI50 (SK-OV-3) was 0.038 µM (active), the GI50 (SNB-19) was 3.6 µM (inactive) and the GI50 (SNB-75) was 0.991 µM (active). The GI50 (T47D) was 0.0579 µM (active) and the GI50 (UO-31) was 0.385 µM (active).

For `CC(NC(=O)C(NC(=O)OC(C)(C)C)C(C)C)C(=O)NCC(=O)ON1C(=O)CCC1=O` (stereo not drawn) (Boc-Val-Ala-Gly-OSu; configuration not given here), the GI50 (786-0) was > 100 µM (inactive), the GI50 (A549) was > 100 µM (inactive) and the GI50 (EKVX) was > 100 µM (inactive). The GI50 (HOP-62) was > 100 µM (inactive), the GI50 (Hs-578T) was > 10 µM (inactive) and the GI50 (M14) was 88.1 µM (inactive). The GI50 (MCF7) was > 100 µM (inactive), the GI50 (MDA-MB-435) was > 100 µM (inactive) and the GI50 (MDA-N) was > 100 µM (inactive). For the same molecule, the GI50 (NCI-H460) was > 100 µM (inactive), the GI50 (NCI-H522) was 63.4 µM (inactive) and the GI50 (OVCAR-3) was > 100 µM (inactive). For the same molecule, the GI50 (RPMI-8226) was > 100 µM (inactive), the GI50 (RXF 393) was > 100 µM (inactive) and the GI50 (SK-MEL-28) was > 100 µM (inactive). For the same molecule, the GI50 (SK-OV-3) was > 100 µM (inactive), the GI50 (SNB-19) was > 100 µM (inactive) and the GI50 (SNB-75) was > 100 µM (inactive). The GI50 (T47D) was > 100 µM (inactive) and the GI50 (UO-31) was > 100 µM (inactive).

With `COc1c(O)cc2oc(-c3ccc(O)cc3)cc(=O)c2c1O` [HISPIDULIN] the GI50 (786-0) was 60.1 µM (inactive), the GI50 (A549) was 35.5 µM (inactive) and the GI50 (EKVX) was 8.07 µM (inactive). The GI50 (HOP-62) was 46.7 µM (inactive), the GI50 (Hs-578T) was 18.9 µM (inactive) and the GI50 (M14) was 38.6 µM (inactive). The GI50 (MCF7) was 52 µM (inactive), the GI50 (MDA-MB-435) was 36.3 µM (inactive) and the GI50 (MDA-N) was 37.2 µM (inactive). For the same molecule, the GI50 (NCI-H460) was 30.8 µM (inactive), the GI50 (NCI-H522) was 36.2 µM (inactive) and the GI50 (OVCAR-3) was 44.1 µM (inactive). For the same molecule, the GI50 (RPMI-8226) was 46.3 µM (inactive), the GI50 (RXF 393) was 51.5 µM (inactive) and the GI50 (SK-MEL-28) was 45.7 µM (inactive). For the same molecule, the GI50 (SK-OV-3) was 48.2 µM (inactive), the GI50 (SNB-19) was 56.1 µM (inactive) and the GI50 (SNB-75) was 17.3 µM (inactive). For the same molecule, the GI50 (T47D) was 33.4 µM (inactive) and the GI50 (UO-31) was 25.1 µM (inactive).
